Assay results: patent publication US7368470B2, “Substituted 3-pyrrolidine-indole derivatives” (Gruenenthal GmbH, priority 2003, dated 2008)

biological target: T1, serotonin reuptake (5HT uptake) (Rattus norvegicus, UniProt P31652); test: Serotonin reuptake inhibition (5HT uptake inhibition) in rat brain synaptosomes; format: biochemical; settings: synaptosomes from male rats' brains
T1 construct: These vesicular particles were isolated from the hypothalamus of male rats' brains for 5HT uptake; from tissue; host or cells: rat brain synaptosomes (P2 fraction; cerebral cortex / hypothalamus of male rats)
Description: a) Tests on Serotonin Reuptake Inhibition
In order to be able to carry out these in vitro studies, synaptosomes from rats' cerebral cortices were freshly isolated. A “P2” fraction prepared according to Gray and Whittaker's instructions (E. G. Gray and V. P. Whittaker (1962) J. Anat. 76, 79-88) was used in each case. These vesicular particles were isolated from the hypothalamus of male rats' brains for 5HT uptake.
A detailed description of the method may be found in the literature (M. Ch. Frink, H.-H. Hennies, W. Englberger, M. Haurand and B. Wilffert (1996) Arzneim.-Forsch./Drug Res. 46 (III), 11, 1029-1036).

T1 sequence (P31652 whole entry): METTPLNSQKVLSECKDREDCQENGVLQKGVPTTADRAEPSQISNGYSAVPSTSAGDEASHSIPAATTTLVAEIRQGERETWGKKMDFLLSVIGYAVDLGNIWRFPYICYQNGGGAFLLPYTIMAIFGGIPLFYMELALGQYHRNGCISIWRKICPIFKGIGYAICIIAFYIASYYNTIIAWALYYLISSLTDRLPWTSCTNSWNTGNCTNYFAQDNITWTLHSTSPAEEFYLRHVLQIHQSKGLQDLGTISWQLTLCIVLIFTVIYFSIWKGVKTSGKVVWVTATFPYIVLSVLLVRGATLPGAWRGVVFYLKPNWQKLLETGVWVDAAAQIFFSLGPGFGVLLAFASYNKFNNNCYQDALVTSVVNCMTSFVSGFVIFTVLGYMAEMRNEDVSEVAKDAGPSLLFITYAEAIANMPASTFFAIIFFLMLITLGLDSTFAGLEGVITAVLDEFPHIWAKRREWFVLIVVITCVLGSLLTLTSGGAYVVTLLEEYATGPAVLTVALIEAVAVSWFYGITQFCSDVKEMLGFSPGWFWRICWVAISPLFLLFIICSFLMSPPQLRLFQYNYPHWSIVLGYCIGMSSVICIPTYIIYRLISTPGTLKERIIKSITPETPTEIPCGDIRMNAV

Molecule	inhibition at 10 µM	5HT uptake, % inhibition [10 μM]
O=C(C1CCC1)N1CCC(c2c[nH]c3ccccc23)C1 (stereo not shown) [Compound 22, cyclobutyl-[3-(1H-indol-3-yl)-pyrrolidin-1-yl]-methanone]	58%	
CN(C)C(=O)Cn1cc(C2CCN(C(=O)c3ccccn3)C2)c2ccccc21 (stereo not shown) [Compound 21, N,N-dimethyl-2-{3-[1-(pyridin-2-carbonyl)-pyrrolidin-3-yl]-indol-1-yl}-acetamide]	84%	
COc1cccc(Cn2cc(C3CCN(C(=O)c4ccc(C)cc4)C3)c3ccccc32)c1 (stereo not shown) [Compound 43, {3-[1-(3-methoxy-benzyl)-1H-indol-3-yl]-pyrrolidin-1-yl}-p-tolyl-methanone]	48%	
Cc1oc(C(C)(C)C)cc1C(=O)N1CCC(c2cn(Cc3ccccc3C#N)c3ccccc23)C1 (stereo not shown) [Compound 33, 2-{3-[1-(5-tert-butyl-2-methyl-furan-3-carbonyl)pyrrolidin-3-yl]-indol-1-ylmethyl)-benzonitrile]	87%	
Cc1cc(C)cc(Cn2cc(C3CCN(CC(=O)Nc4scc(C)c4C#N)C3)c3ccccc32)c1 (stereo not shown) [Compound 50, N-(3-cyano-4-methyl-thiophen-2-yl)-2-{3-[1-(3,5-dimethyl-benzyl)-1H-indol-3-yl]-pyrrolidin-1-yl}acetamide]	83%	
O=C(CN1CCC(c2cn(Cc3ccc(F)c(F)c3)c3ccccc23)C1)Nc1csc(C(F)(F)F)c1-c1ccccc1 (stereo not shown) [Compound 53, 2-{3-[1-(3,4-difluoro-benzyl)-1H-indol-3-yl]-pyrrolidin-1-yl}-N-(4-phenyl-5-trifluiommethyl-thiophen-3-yl)-acetamide]		55%
CN(C)C(=O)Cn1cc(C2CCN(S(=O)(=O)Cc3ccccc3)C2)c2ccccc21 (stereo not shown) [Compound 30, N,N-dimethyl-2-[3-(1-phenylmethanesulphonyl-pyrrolidin-3-yl)-indol-1-yl]-acetamide]	47%	
O=C(c1ccccc1Cl)N1CCC(c2c[nH]c3ccccc23)C1 (stereo not shown) [Compound 27, (2-chloro-phenyl)-[3-(1H-indol-3-yl)-pyrrolidin-1-yl]-methanone]	70%	
COc1ccc(OC)c(CC(=O)N2CCC(c3cn(CC(=O)N(C)C)c4ccccc34)C2)c1 (stereo not shown) [Compound 19, 2-(3-{1-[2-(2,5-dimethoxy-phenyl)-acetyl]-pyrrolidin-3-yl}-indol-1-yl)-N,N-dimethyl-acetamide]	86%	
CCN(CC)C(=O)Cn1cc(C2CCN(C(=O)C3CCCC3)C2)c2ccccc21 (stereo not shown) [Compound 25, 2-1[3-(1-cyclopentanecarbonyl-pyrrolidin-3-yl)-indol-1-yl]-N,N-diethyl acetamide]		80%
Cc1ccc(S(=O)(=O)NC(Cc2ccccc2)C(=O)N2CCC(c3cn(CC(=O)N(C)C)c4ccccc34)C2)cc1 (stereo not shown) [Compound 29, N,N-dimethyl-2-(3-{1-[3-phenyl-2-(toluene-4-sulphonylamino)-propionyl]-pyrrolidin-3-yl)-indol-1-yl)-acetamide]	63%	
CN(C)C(=O)Cn1cc(C2CCN(C(=O)NCc3ccc(Cl)c(Cl)c3)C2)c2ccccc21 (stereo not shown) [Compound 17, 3-(1-dimethylcarbamoylmethyl-1H-indol-3-yl)-pyrrolidine-1-carboxylic acid 3,4-dichloro-benzylamide]	43%	
Cn1cc(C2CCN(C(=O)c3c(F)c(F)c(F)c(F)c3F)C2)c2ccccc21 (stereo not shown) [Compound 47, [3-(1-methyl-1H-indol-3-yl)-pyrrolidin-1-yl]-pentafluorophenyl-methanone]	46%	
COc1cccc(Cn2cc(C3CCN(C(=O)CCc4ccccc4)C3)c3ccccc32)c1 (stereo not shown) [Compound 36, 1-{3-[1-(3-methoxy-benzyl)-1H-indol-3-yl]-pyrrolidin-1-yl}-3-phenyl-propan-1-one]	42%	
CCCCC(=O)N1CCC(c2cn(CC(=O)N(CC)CC)c3ccccc23)C1 (stereo not shown) [Compound 23, N,N-diethyl-2-[3-(1-pentanoyl-pyrrolidin-3-yl)-indol-1-yl]-acetamide]	49%	

system: binding site 2 of the sodium channel (batrachotoxin (BTX) binding site); test: Binding test on the sodium channel, binding site 2 (BTX bond), [3H]-batrachotoxinin A20 α-benzoate as ligand; design: species or system rat; settings: 10 μM; rat cerebrocortex synaptosomes; ligand 10 nM; 25° C., 120 min

Molecule	BTX bond, % inhibition [10 μM]
CC(C)CCn1cc(C2CCN(C(=O)c3ccc(C(C)(C)C)cc3)C2)c2ccccc21 (stereo not shown) [Compound 6, (4-tert-butyl-phenyl)-{3-[1-(3-methyl-butyl)-1H-indol-3-yl]-pyrrolidin-1-yl}-methanone]	91%
CCOc1ccccc1C(=O)N1CCC(c2cn(Cc3cccc(OC)c3)c3ccccc23)C1 (stereo not shown) [Compound 8, (2-ethoxy-phenyl)-{3-[1-(3-methoxy-benzyl)-1H-indol-3-yl]-pyrrolidin-1-yl}-methanone]	88%
CCn1cc(C2CCN(C(=O)COc3cccc(Cl)c3)C2)c2ccccc21 (stereo not shown) [Compound 12, 2-(3-chloro-phenoxy)-1-[3-(1-ethyl-1H-indol-3-yl)-pyrrolidin-1-yl]-ethanone]	83%
COc1cccc(Cn2cc(C3CCN(C(=O)c4ccc(C)cc4)C3)c3ccccc32)c1 (stereo not shown) [Compound 43, {3-[1-(3-methoxy-benzyl)-1H-indol-3-yl]-pyrrolidin-1-yl}-p-tolyl-methanone]	92%
CCn1cc(C2CCN(C(=O)c3ccc(Cl)c(Cl)c3)C2)c2ccccc21 (stereo not shown) [Compound 15, (3,4-dichloro-phenyl)-[3-(1-ethyl-1H-indol-3-yl)-pyrrolidin-1-yl]-methanone]	80%
CCn1cc(C2CCN(C(=O)c3cccc(C)c3C)C2)c2ccccc21 (stereo not shown) [Compound 10, (2,3-dimethyl-phenyl)-[3-(1-ethyl-1H-indol-3-yl)-pyrrolidin-1-yl]-methanone]	83%
CC(Oc1ccccc1)C(=O)N1CCC(c2cn(Cc3ccc(C#N)cc3)c3ccccc23)C1 (stereo not shown) [Compound 13, 4-(3-[1-(2-phenoxy-propionyl)-pyrrolidin-3-yl]-indol-1-ylmethyl}-benzonitrile]	82%
Cc1oc(C(C)(C)C)cc1C(=O)N1CCC(c2cn(Cc3ccccc3C#N)c3ccccc23)C1 (stereo not shown) [Compound 33, 2-{3-[1-(5-tert-butyl-2-methyl-furan-3-carbonyl)pyrrolidin-3-yl]-indol-1-ylmethyl)-benzonitrile]	89%
COc1cccc(Cn2cc(C3CCN(C(=O)C=Cc4ccccc4)C3)c3ccccc32)c1 (stereo not shown) [Compound 4, 1-{3-[1-(3-methoxy-benzyl)-1H-indol-3-yl]-pyrrolidin-1-yl}-3-phenyl-propenone]	92%
COc1cccc(Cn2cc(C3CCN(C(=O)C(C)Oc4ccccc4)C3)c3ccccc32)c1 (stereo not shown) [Compound 11, 1-{3-[1-(3-methoxy-benzyl)-1H-indol-3-yl]-pyrrolidin-1-yl}-2-phenoxy-propan-1-one]	83%
Cc1cc(C)c(S(=O)(=O)N2CCC(c3cn(CC(=O)N(C)C)c4ccccc34)C2)c(C)c1 (stereo not shown) [Compound 14, N,N-dimethyl-2-{3-[1-(2,4,6-trimethyl-benzenesulphonyl)-pyrrolidin-3-yl]-indol-1-yl}-acetamide]	80%
COc1ccc(C(=O)N2CCC(c3cn(CCC(C)C)c4ccccc34)C2)cc1OC (stereo not shown) [Compound 2, (3,4-dimethoxy-phenyl)-{3-[1-(3-methyl-butyl)-1H-indol-3-yl]-pyrrolidin-1-yl}-methanone]	93%
CCCc1ccc(C(=O)N2CCC(c3cn(Cc4ccc(C(F)(F)F)cc4)c4ccccc34)C2)cc1 (stereo not shown) [Compound 1, (4-propyl-phenyl)-{3-[1-(4-trifluoromethyl-benzyl)-1H-indol-3-yl]-pyrrolidin-1-yl}-methanone]	95%
CCn1cc(C2CCN(C(=O)c3ccc(C(F)(F)F)c(F)c3)C2)c2ccccc21 (stereo not shown) [Compound 9]	84%
CCCCn1cc(C2CCN(C(=O)c3ccc(C(F)(F)F)nc3C)C2)c2ccccc21 (stereo not shown) [Compound 3]	93%
CCCc1ccc(C(=O)N2CCC(c3cn(Cc4ccc(Br)cc4)c4ccccc34)C2)cc1 (stereo not shown) [Compound 7, {3-[1-(4-bromo-benzyl)-1H-indol-3-yl]-pyrrolidin-1-yl}-(4-propyl-phenyl)-methanone]	89%
O=C(c1cccc(F)c1F)N1CCC(c2cn(Cc3ccc(C(F)(F)F)cc3)c3ccccc23)C1 (stereo not shown) [Compound 5, (2,3-difluoro-phenyl)-{3-[1-(4-trifluoromethyl-benzyl)-1H-indol-3-yl]-pyrrolidin-1-yl}-methanone]	92%
COc1cccc(Cn2cc(C3CCN(C(=O)CCc4ccccc4)C3)c3ccccc32)c1 (stereo not shown) [Compound 36, 1-{3-[1-(3-methoxy-benzyl)-1H-indol-3-yl]-pyrrolidin-1-yl}-3-phenyl-propan-1-one]	96%

same assay, conditions: radioligand; mean±SEM, N=3 independent test series; read-out: KD value for this binding site

Molecule	Kd
[^3H]-batrachotoxinin A20 α-benzoate [reference compound]	24.6 ± 1.56 nM

biological target: T2, noradrenalin reuptake (NA uptake) (Rattus norvegicus, UniProt Q9WTR4); test: Noradrenalin reuptake inhibition (NA uptake inhibition) in rat brain synaptosomes; format: biochemical; settings: synaptosomes from male rats' brains
T2 construct: These vesicular particles were isolated from the hypothalamus of male rats' brains for NA uptake; from tissue; host or cells: rat brain synaptosomes (P2 fraction; cerebral cortex / hypothalamus of male rats)
Description: b) Tests on Noradrenalin Reuptake Inhibition
In order to be able to carry out these in vitro studies, synaptosomes from rats' cerebral cortices were freshly isolated. A “P2” fraction, prepared according to Gray and Whittaker's instructions (E. G. Gray and V. P. Whittaker (1962) J. Anat. 76, 79-88) was used in each case. These vesicular particles were isolated from the hypothalamus of male rats' brains for NA uptake.
A detailed description of the method may be found in the literature (M. Ch. Frink, H.-H. Hennies, W. Englberger, M. Haurand and B. Wilffert (1996) Arzneim.-Frosch./Drug Res. 46 (III), 11, 1029-1036).

T2 sequence (Q9WTR4 1-597): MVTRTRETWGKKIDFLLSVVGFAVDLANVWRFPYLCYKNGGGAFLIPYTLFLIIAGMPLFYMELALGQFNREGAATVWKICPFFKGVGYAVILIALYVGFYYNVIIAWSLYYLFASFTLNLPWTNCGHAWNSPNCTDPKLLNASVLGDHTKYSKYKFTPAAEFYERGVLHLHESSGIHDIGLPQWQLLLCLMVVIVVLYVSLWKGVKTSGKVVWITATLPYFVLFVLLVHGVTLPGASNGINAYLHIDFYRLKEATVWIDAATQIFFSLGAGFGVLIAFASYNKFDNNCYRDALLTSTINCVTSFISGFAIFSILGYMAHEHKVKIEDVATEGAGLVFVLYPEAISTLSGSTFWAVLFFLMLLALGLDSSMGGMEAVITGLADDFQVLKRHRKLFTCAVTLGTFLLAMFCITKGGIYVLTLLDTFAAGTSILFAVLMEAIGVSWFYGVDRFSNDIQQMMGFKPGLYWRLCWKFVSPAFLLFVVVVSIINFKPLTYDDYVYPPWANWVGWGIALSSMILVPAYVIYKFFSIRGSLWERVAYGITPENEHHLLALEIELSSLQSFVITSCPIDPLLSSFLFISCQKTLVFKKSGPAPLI

Molecule	inhibition at 10 µM
CCN(CC)C(=O)Cn1cc(C2CCN(CC(=O)Nc3ccc(C(F)(F)F)cc3)C2)c2ccccc21 (stereo not shown) [Compound 51, N,N-diethyl-2-(3-{1-[(4-trifluoromethyl-phenylcarbamoyl)-methyl]-pyrrolidin-3-yl}-indol-1-yl)-acetamide]	57%
CN(C)C(=O)Cn1cc(C2CCN(C(=S)Nc3cccc(C(F)(F)F)c3)C2)c2ccccc21 (stereo not shown) [Compound 16, N,N-dimethyl-2-{3-[1-(3-trifluoromethyl-phenylthiocarbamoyl)-pyrrolidin-3-yl]-indol-1-yl}-acetamide]	50%
CCn1cc(C2CCN(C(=O)c3c(-c4ccccc4Cl)noc3C)C2)c2ccccc21 (stereo not shown) [Compound 32, [3-(2-chloro-phenyl)-5-methyl-isoxazol-4-yl]-[3-(1-ethyl-1H-indol-3-yl)-pyrrolidin-1-yl]-methanone]	44%
